Assay results: patent US7973014B2, “Medicinal composition containing ginseng secondary glycosides, its preparation method and application” (National Institute of Pharmaceutical R&D Co., Ltd., priority 2005, dated 2011)
Like-named read-outs stand apart in the source and are kept apart here. Marks after values point to notes of the source that are not given here.

Columns and labels:
[1] = system: rat arrhythmia induced by BaCl2; test: Arrhythmia induced by BaCl2 in rats; assay type: in vivo; settings: 50 mg/kg
Method: 70 SD rats, including half male and half female, were randomly divided into: control group, Diltiazem group, 200 mg/kg Di'ao Xinxuekang group, 200 mg/kg the root total ginsenosides group, and 200, 100, 50, 25 mg/kg dosage groups of the total secondary ginsenosides. On the 7th day of administration of drug, 30 minutes after the administration of drug, each of the rats was anesthetized by intraperitoneal injection of 300 mg/kg 10% chloral hydrate, fixed in supine position on rat bench. The chart speed was set at 50 mm/s, and the sensitivity was set at 20 mm/mv. After printing under standard voltage, normal II Lead electrocardiogram was recorded for a certain period, then the rat was administered with 4 mg/kg barium chloride via sublingual vein and observed immediately to record the electrocardiograms at 1, 5, 10, 15, 20, 25, 30 minutes after the administration of barium chloride. The heart rate was calculated and compared with the reference value before administration, and the onset time and time period of arrhythmia were compared as well. The incidence rates of ventricular premature beat (VP), ventricular tachycardia (VT) and ventricular fibrillation (VF) were calculated.

[2] = system: acute myocardial infarction in dogs; test: Range of acute myocardial infarction in dogs, N-BT staining; assay type: in vivo, dog; settings: 5 mg/kg
Method: (§1) Test dogs were divided into the following 8 groups, 6 dogs per group: (1) blank control group, 3 ml/kg physiological saline; (2) 5 mg/kg Diltiazem group; (3) 200 mg/kg “Di'ao Xinxuekang” group; (4) 200 mg/kg ginseng root total ginsenosides (briefly referred as root total ginsenosides) group; (5) 200 mg/kg ginseng stem/leave total ginsenosides (briefly referred as stem/leave total ginsenosides) group; (6) 25 mg/kg total secondary ginsenosides group; (7) 50 mg/kg total secondary ginsenosides group; and (8) 100 mg/kg total secondary ginsenosides group. All test drugs were formulated with distilled water to have the same volume (3 ml/kg), and were administered through duodenum.
Recording was completed at 180 minutes after administration of drug, heart was taken out immediately, cardiac ventricle was cross-sectioned parallel to coronary sulcus under heart ligature to form 5 slices, which were placed in N-BT staining solution and stained at room temperature for 15 minutes. Infarction zone (N-BT non-staining zone) and non-infarction zone (N-BT staining zone) at both sides of each slice of cardiac muscle were measured by using a multimedia color pathologic image analysis system to calculate the area of each slice of cardiac muscle, the total area of the cardiac ventricle and the total area of the infarction zones. The percentages of infarction zones based on the cardiac ventricle and on the whole heart were calculated.
(§2) The test results were statistically analyzed, and t-test was used to determine the significance.

[3] = system: thrombosis in experimental rat jugular arteriovenous bypass; test: Thrombosis in rat jugular arteriovenous bypass; assay type: in vivo; settings: for inhibition at 50 mg/kg: Rattus norvegicus
Method: 70 Rats, half male and half female, weighting 250-300 g, were randomly divided into 7 groups, 10 rats per group, and fed for one week in advance. The said 7 groups included high, middle and low dosage groups of the total secondary ginsenosides (200, 100 and 50 mg/kg), and control groups: Diltiazem group (50 mg/kg), Di'ao Xinxuekang group (200 mg/kg), root total ginsenosides group (200 mg/kg) and blank control group (water). administered All the drugs and controls were administered through intragastrical perfusion for 7 days.
Measurement of the rate for inhibition of thrombosis: on the 7th day after administration of drug, 30 minutes after the administration, each of rats was anesthetized with sodium pentobarbital, the left external jugular vein and right common carotid artery were separated, three segments of polyethylene tubes were used to form cannula, and then 5 cm weighed 4-suture was placed in the middle segment. These polyethylene tubes were filled with heparin-physiological saline (50 U/ml). When one end of the tube was inserted into the external jugular vein, one end of the tube was clamped and the end fixed by suture was inserted into the right common carotid artery. After this operation, bleeding was performed immediately and then stopped 15 minutes later, the suture was taken out quickly and weighed. The wet weight of thrombus was calculated by subtracting the suture weight from the total weight. The thrombosis inhibition rate was calculated according to the following formula. Inhibition rate (%)=[(Thrombus weight of the control group)−(Thrombus weight of the group administered with drug)]/(Thrombus weight of the control group)×100% Results: […]

[4] = system: acute myocardial ischemia induced by coronary artery ligation in anesthetized dogs; test: Myocardial ischemia induced by coronary artery ligation in anesthetized dogs, epicardial electrogram mapping; assay type: in vivo, dog; settings: 5 mg/kg
Method: as §1
(§3) Animals each was anesthetized with sodium pentobarbital (30 mg/kg), operated to form pericardium bed; left circumflex artery was separated, an electromagnetic flow meter probe was placed therein to measure cardiac coronary blood flow (CCBF); middle section of anterior descending coronary artery was separated, braided for ligation to create an experimental acute myocardial ischemia model; a multipoint fixed epicardial lead was sutured and connected with a multichannel electrophysiolograph to record epicardial electrogram. Coronary artery was ligated for 15 minutes, and recorded as control value before administration of drug, test drug or physiological saline was administered via duodenum, 30 mapping point epicardial electrograms were recorded at 15, 30, 45, 60, 90, 120, 180 minutes after the administration of drug, and the degree of myocardial ischemia (Σ-ST, total increase of mv number in S-T section) and the range of myocardial ischemia (N-ST, total increase of point numberin S-T section) were calculated. Blood samples were taken at orifice of coronary sinus vein by cannulation via external jugular vein before ischemia, at 15 minutes after ischemia (before administration of drug), and at 0, 30, 60, 90, 120, 180 minutes after administration of drug, the contents of oxygen in the coronary venous blood were measured by oxyhemograph; cannulation was made to common carotid artery, where the contents of […] in the arterial blood were measured, which together with coronary blood flow were used to calculate myocardial oxygen consumption (MOC). Blood samples were taken at the abovementioned time points to measure the levels of serum creatine kinase (CK) and lactic acid dehydrogenase (LDH); and the levels of blood plasma endothelin (ET), thromboxane B2 (TXB2) and 6-keto-prostaglandin F1a (6-Keto-PGF1a) were measured by an automatic γ-counter radioimmunologically.
as §2

[5] = system: coronary blood flow in experimental myocardial ischemia dogs; test: Coronary blood flow in experimental myocardial ischemia dogs; assay type: in vivo, dog; settings: 5 mg/kg
Method: as §1, §3

thrombin = thrombin (Homo sapiens, UniProt P00734); settings: cited from earlier work
cancer cells = settings: cited from earlier work
[6] = oral administration, human body; cited from earlier work
platelets = settings: cited from earlier work

Compound: COc1ccc([C@@H]2Sc3ccccc3N(CCN(C)C)C(=O)[C@@H]2OC(C)=O)cc1 [Diltiazem]
- Duration of arrhythmia [1]: 13.2 ± 6.0 min
- Incidence rate of VF [1]: 0* %
- Onset time of VP [1]: 15.0 ± 10.8 s
- Onset time of VT [1]: 20 ± 8.8 s
- Heart rate ([1]; 5 min after BaCl2): 327 ± 64 beat/min
- Heart rate ([1]; 10 min after BaCl2): 360 ± 88 beat/min
- Heart rate ([1]; 20 min after BaCl2): 381 ± 71 beat/min
- Heart rate ([1]; 30 min after BaCl2): 399 ± 42 beat/min
- Heart rate ([1]; before BaCl2): 397 ± 53 beat/min
- Infarction zone area [2]: 266.25 ± 63.4*** mm^2
- Infraction zone/cardiac ventricle [2]: 5.36 ± 1.70
- Infraction zone/heart [2]: 2.27 ± 0.83
- Wet weight of thrombus ([3]; 50 mg/kg intragastric, 7 days): 0.0200 ± 0.005 g
- inhibition at 50 mg/kg ([3]; po, 168 h, 50 mg/kg intragastric, 7 days, read-out: Inhibition rate): 32.9%
- inhibition at 50 mg/kg ([3]; 50 mg/kg, read-out: inhibition rate of thrombosis): 33%
- N-ST change rate ([4]; 15 min after drug): 89.60 ± 8.40 %
- acute myocardial ischemia (N-ST) ([4]; 15 min after drug): 24.83 ± 2.04
- degree of acute myocardial ischemia (Σ-ST) ([4]; 15 min after drug): 182.00 ± 70.40 mv
- Σ-ST change rate ([4]; 15 min after drug): 61.01 ± 20.89 %
- N-ST change rate ([4]; 30 min after drug): 89.53 ± 15.49%
- acute myocardial ischemia (N-ST) ([4]; 30 min after drug): 25.33 ± 4.08
- degree of acute myocardial ischemia (Σ-ST) ([4]; 30 min after drug): 149.83 ± 41.36 mv
- Σ-ST change rate ([4]; 30 min after drug): 48.75 ± 9.99 %
- N-ST change rate ([4]; 45 min after drug): 86.82 ± 14.83%
- acute myocardial ischemia (N-ST) ([4]; 45 min after drug): 23.17 ± 5.91
- degree of acute myocardial ischemia (Σ-ST) ([4]; 45 min after drug): 126.00 ± 47.35 mv
- Σ-ST change rate ([4]; 45 min after drug): 42.43 ± 8.97 %
- N-ST change rate ([4]; 60 min after drug): 87.48 ± 15.08%
- acute myocardial ischemia (N-ST) ([4]; 60 min after drug): 23.50 ± 4.85
- degree of acute myocardial ischemia (Σ-ST) ([4]; 60 min after drug): 148.67 ± 71.87 mv
- Σ-ST change rate ([4]; 60 min after drug): 47.78 ± 10.82 %
- N-ST change rate ([4]; 90 min after drug): 81.41 ± 14.31 %
- acute myocardial ischemia (N-ST) ([4]; 90 min after drug): 21.50 ± 5.86
- degree of acute myocardial ischemia (Σ-ST) ([4]; 90 min after drug): 140.17 ± 63.46 mv
- Σ-ST change rate ([4]; 90 min after drug): 54.98 ± 18.57 %
- N-ST change rate ([4]; 120 min after drug): 77.22 ± 16.49 %
- acute myocardial ischemia (N-ST) ([4]; 120 min after drug): 20.00 ± 6.00
- degree of acute myocardial ischemia (Σ-ST) ([4]; 120 min after drug): 139.00 ± 69.20 mv
- Σ-ST change rate ([4]; 120 min after drug): 52.21 ± 19.91 %
- N-ST change rate ([4]; 180 min after drug): 75.89 ± 19.59 %
- acute myocardial ischemia (N-ST) ([4]; 180 min after drug): 20.67 ± 5.99
- degree of acute myocardial ischemia (Σ-ST) ([4]; 180 min after drug): 117.17 ± 54.27 mv
- Σ-ST change rate ([4]; 180 min after drug): 45.99 ± 18.90 %
- acute myocardial ischemia (N-ST) ([4]; before drug): 28.67
- degree of acute myocardial ischemia (Σ-ST) ([4]; before drug): 291.00 ± 40.39 mv
- coronary blood flow ([5]; 30 min after drug): 110.36 ± 58.20 ml/100 g · min^−1
- coronary blood flow change rate ([5]; 30 min after drug): 108.70 ± 3.32 %
- coronary blood flow ([5]; 60 min after drug): 119.11 ± 61.62 ml/100 g · min^−1
- coronary blood flow change rate ([5]; 60 min after drug): 117.06 ± 5.17 %
- coronary blood flow ([5]; 90 min after drug): 122.97 ± 64.44 ml/100 g · min^−1
- coronary blood flow change rate ([5]; 90 min after drug): 120.06 ± 7.27 %
- coronary blood flow ([5]; 120 min after drug): 119.15 ± 65.51 ml/100 g · min^−1
- coronary blood flow change rate ([5]; 120 min after drug): 116.97 ± 7.33 %
- coronary blood flow ([5]; 180 min after drug): 112.10 ± 60.59 ml/100 g · min^−1
- coronary blood flow change rate ([5]; 180 min after drug): 112.21 ± 6.46 %
- coronary blood flow ([5]; after ischemia before drug): 101.82 ± 54.71 ml/100 g · min^−1
- coronary blood flow change rate ([5]; after ischemia before drug): 110.34 ± 4.17%
- coronary blood flow ([5]; before ischemia (normal value)): 92.07 ± 46.98 ml/100 g · min^−1

Compound: CC(C)=CCC[C@](C)(O)[C@H]1CC[C@]2(C)[C@@H]1[C@H](O)C[C@@H]1[C@@]3(C)CC[C@H](O)C(C)(C)[C@@H]3[C@@H](O[C@@H]3O[C@H](CO)[C@@H](O)[C@H](O)[C@H]3O)C[C@]12C [Ginsenoside Rh1]
- conversion of fibrinogen to fibrin induced by thrombin (thrombin): significant inhibitory effects
- anticancer activity (cancer cells): significant anticancer activity

Compound: CC(C)=CCC[C@](C)(O[C@@H]1O[C@H](CO[C@@H]2O[C@H](CO)[C@@H](O)[C@H](O)[C@H]2O)[C@@H](O)[C@H](O)[C@H]1O)[C@H]1CC[C@]2(C)[C@@H]1[C@H](O)C[C@@H]1[C@@]3(C)CC[C@H](O[C@@H]4O[C@H](CO)[C@@H](O)[C@H](O)[C@H]4O[C@@H]4O[C@H](CO)[C@@H](O)[C@H](O)[C@H]4O)C(C)(C)[C@@H]3CC[C@]12C [ginsenoside-Rb1]
- absorption rate [6]: 1%

Compound: CC(C)=CCC[C@](C)(O)[C@H]1CC[C@]2(C)[C@@H]1[C@H](O)C[C@@H]1[C@@]3(C)CC[C@H](O[C@@H]4O[C@H](CO)[C@@H](O)[C@H](O)[C@H]4O)C(C)(C)[C@@H]3CC[C@]12C [Rh2, ginsenoside Rh2]
- anticancer activity (cancer cells): significant anticancer activity

Compound: CC(C)=CCC[C@](C)(O)[C@H]1CC[C@]2(C)[C@@H]1[C@H](O)C[C@@H]1[C@@]3(C)CC[C@H](O[C@@H]4O[C@H](CO)[C@@H](O)[C@H](O)[C@H]4O[C@@H]4O[C@H](CO)[C@@H](O)[C@H](O)[C@H]4O)C(C)(C)[C@@H]3CC[C@]12C [Ginsenoside Rg3]
- platelet aggregation induced by collagen or ADP (platelets): relatively strong inhibitory effects
- anticancer activity (cancer cells): significant anticancer activity
